What all share (format): functional
Experiment [1] concerns Staphylococcus aureus. In words: Antibacterial activity against methicillin-resistant Staphylococcus aureus after 18 hrs by dilution method.
The test system of experiment [2] is Staphylococcus aureus. As to the kind of experiment: Antibacterial activity against Staphylococcus aureus after 18 hrs by dilution method.
The subject of experiment [3] is Staphylococcus aureus. As to the kind of experiment: Antibacterial activity against multidrug-resistant Staphylococcus aureus after 18 hrs by dilution method.

Converted amounts (≈) assume the structure as drawn.

In general, MIC refers to the smallest concentration in the dilution series that meets the test's criterion for growth inhibition. A low value points to greater potency. As to `C/C=C(\C)[C@H]1[C@@H](/C=C/C=C(\C)[C@@H](O)[C@@H](C)CO)[C@@H]2C[C@@H](O)[C@](C)(O)C[C@H]2[C@@H]2O[C@@]21C` [FUSARIELIN B], the MIC against Staphylococcus aureus [1], against Staphylococcus aureus [2] and against Staphylococcus aureus [3] was 62.5 µg/mL (≈ 149 µM) each time.
With `C/C=C(\C)[C@H]1[C@@H](/C=C/C=C(\C)[C@@H](O)[C@@H](C)CO)[C@@H]2C[C@@H]3O[C@]3(C)C[C@H]2[C@@H]2O[C@@]21C` [FUSARIELIN A], the minimal inhibitory concentration (MIC) in the experiment on Staphylococcus aureus [1] was determined as 32.5 µg/mL (≈ 80.7 µM); with Staphylococcus aureus [2], 32.5 µg/mL (≈ 80.7 µM); with Staphylococcus aureus [3] it was 62.5 µg/mL (≈ 155 µM).
On to `C/C=C(\C)[C@H]1[C@@H](/C=C/C=C(\C)[C@@H](O)[C@@H](C)CO)[C@@H]2C[C@@H](Cl)[C@](C)(O)C[C@H]2[C@@H]2O[C@@]21C` [DEHYDROXYCHLOROFUSARIELIN B], for which the MIC against Staphylococcus aureus [1], against Staphylococcus aureus [2] and with Staphylococcus aureus [3] was 62.5 µg/mL (≈ 142 µM) in each case.

These data come from ChEMBL document CHEMBL1145413, “Dehydroxychlorofusarielin B, an antibacterial polyoxygenated decalin derivative from the marine-derived fungus Aspergillus sp” (2007).
